Values of other authors as cited in patent US20230022060A1, “TURKESTERONE HYDROXYPROPYL B-CYCLIC DEXTRIN COMPLEX AND METHOD OF MANUFACTURING THEREOF” (Gorilla Mind, LLC, priority 2021, published 2023).

How the values were obtained:
[1] = tested on: Staphylococcus aureus, Bacillus subtilis and Escherichia coli; details: three bacteria
[2] = 100 mL water at 25° C.

amount that can be dissolved in water [2] | SMILES | difference of antimicrobial activity between chlorogenic acid and its complex [1]
 | O=C(/C=C/c1ccc(O)c(O)c1)O[C@@H]1C[C@](O)(C(=O)O)C[C@@H](O)[C@H]1O [chlorogenic acid] | No significant difference
About 14 g in 100 mL water | OC[C@H]1O[C@@H]2O[C@H]3[C@H](O)[C@@H](O)[C@@H](O[C@H]4[C@H](O)[C@@H](O)[C@@H](O[C@H]5[C@H](O)[C@@H](O)[C@@H](O[C@H]6[C@H](O)[C@@H](O)[C@@H](O[C@H]7[C@H](O)[C@@H](O)[C@@H](O[C@H]1[C@H](O)[C@H]2O)O[C@@H]7CO)O[C@@H]6CO)O[C@@H]5CO)O[C@@H]4CO)O[C@@H]3CO [α-cyclodextrin] | 
